Measured values as given in article PMC8155022 (Scientific Reports, 2021).

How the values were obtained:
ERRγ = ERRγ (Homo sapiens, UniProt P62508); assay: biochemical TR-FRET assay; conditions: agonist and antagonist mode; read-out: potency in agonist and antagonist mode
DA-T transporter (h) = target: T1, DA-T transporter (h) (Homo sapiens, UniProt Q01959); assay: Cerep panel; format: binding
T1 construct: purchased Cerep (receptors, ion channels, transporters); Eurofins Panlabs (kinases)
Description: (§1) 28 GPCRs were evaluated through cAMP or calcium FLIPR assays[67]. A panel of 52 different receptors, ion channels and transporters was tested by Cerep, Inc. (Redmond, WA).

SAPK4(h) = target: T2, SAPK4(h) (Homo sapiens, UniProt O15264); assay: Kinase panel; format: biochemical
T2 construct: purchased Cerep (receptors, ion channels, transporters); Eurofins Panlabs (kinases)
T2 sequence (O15264 whole entry): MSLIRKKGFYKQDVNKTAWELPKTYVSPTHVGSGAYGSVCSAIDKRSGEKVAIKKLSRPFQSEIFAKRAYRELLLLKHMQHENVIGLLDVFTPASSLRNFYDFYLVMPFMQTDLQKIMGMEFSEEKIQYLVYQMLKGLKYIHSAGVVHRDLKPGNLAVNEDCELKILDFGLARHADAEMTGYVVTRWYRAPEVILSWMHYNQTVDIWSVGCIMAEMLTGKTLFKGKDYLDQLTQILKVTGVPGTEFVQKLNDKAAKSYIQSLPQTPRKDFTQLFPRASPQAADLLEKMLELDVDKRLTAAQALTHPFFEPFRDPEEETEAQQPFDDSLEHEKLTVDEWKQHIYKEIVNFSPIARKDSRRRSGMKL
Description: (§2) Kinase selectivity was conducted by Eurofins Panlabs Inc (St Charles, MO).

delta = delta (Homo sapiens, UniProt P41143); assay: GPCR panel, cAMP or calcium FLIPR assays; format: cell-based
Description: (§3) 28 GPCRs were evaluated through cAMP or calcium FLIPR assays[67].

rat whole blood = assay: in vitro whole blood assay, IL-17A production; format: cell-based; conditions: rat whole blood diluted 1:4; read-out: IC50, inhibition of IL-17A production
Description: Two days later, IL-17A levels were measured in culture supernatant samples (see supplementary materials and methods).

[1] = test system: ex vivo stimulated IL-17A production; assay: phase 1 single ascending dose study, ex vivo stimulated IL-17A production in whole blood; design: species or system human
Description: The sampling was performed up to 120 h post-dose for cohort 1 (10 mg) and cohort 2 (30 mg), and extended to 504 h for cohort 3, 4 and 5.
Whole blood samples were collected on the morning of day 1 at pre-dose and at 1, 2, 6, 12, 24, 48, 96, and 120 h post-dose in Cohorts 1 and 2. For Cohort 3,4, and 5, samples were collected the morning of day 1 at pre-dose and at 2, 6, 12, 24, 48, 120, 312 and 504 h post-dose. Blood samples (1 ml) were drawn into TruCulture tubes (Myriad RBM, Austin, TX) which contained 2 ml of cocktail containing cell culture media and stimulants, then mixed and incubated at 37 °C in a block thermostat for 48 h. The final concentrations of the stimulants in the TruCulture tube incubations were: IL-23 (50 ng/ml), and IL-1β (10 ng/ml), with anti-CD3 and anti-CD28 antibodies at standard concentration as per standard CD3/CD28 TruCulture tubes. Negative control tubes (no stimulants) were also collected at each timepoint. Supernatants were collected after the end of the incubation period and analyzed to determine concentrations of induced IL-17A using a validated immunoassay method (human IL-17A V-plex kit from Meso Scale Discovery).

CHK1(h) = target: T3, CHK1(h) (Homo sapiens, UniProt O14757); assay: Kinase panel; format: biochemical
T3 construct: purchased Cerep (receptors, ion channels, transporters); Eurofins Panlabs (kinases)
T3 sequence (O14757 whole entry): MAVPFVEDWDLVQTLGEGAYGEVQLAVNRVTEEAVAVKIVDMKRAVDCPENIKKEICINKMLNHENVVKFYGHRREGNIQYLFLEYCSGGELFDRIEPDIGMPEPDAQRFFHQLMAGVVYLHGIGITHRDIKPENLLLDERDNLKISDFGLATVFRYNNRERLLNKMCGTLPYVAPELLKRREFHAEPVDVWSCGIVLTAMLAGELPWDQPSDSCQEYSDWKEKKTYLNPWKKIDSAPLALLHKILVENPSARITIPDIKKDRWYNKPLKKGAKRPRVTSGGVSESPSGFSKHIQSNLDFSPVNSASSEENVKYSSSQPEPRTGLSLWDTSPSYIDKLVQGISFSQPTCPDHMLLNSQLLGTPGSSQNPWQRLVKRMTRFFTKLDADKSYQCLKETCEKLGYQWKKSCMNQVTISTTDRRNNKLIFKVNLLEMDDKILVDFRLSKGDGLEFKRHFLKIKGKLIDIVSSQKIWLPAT
Description: as §2

PXR = target: T4, PXR (Homo sapiens, UniProt O75469); assay: nuclear receptor cellular GAL4 reporter assay; format: cell-based
T4 construct: expressed in transfected cells
T4 sequence (O75469 whole entry, the tested form may be a part): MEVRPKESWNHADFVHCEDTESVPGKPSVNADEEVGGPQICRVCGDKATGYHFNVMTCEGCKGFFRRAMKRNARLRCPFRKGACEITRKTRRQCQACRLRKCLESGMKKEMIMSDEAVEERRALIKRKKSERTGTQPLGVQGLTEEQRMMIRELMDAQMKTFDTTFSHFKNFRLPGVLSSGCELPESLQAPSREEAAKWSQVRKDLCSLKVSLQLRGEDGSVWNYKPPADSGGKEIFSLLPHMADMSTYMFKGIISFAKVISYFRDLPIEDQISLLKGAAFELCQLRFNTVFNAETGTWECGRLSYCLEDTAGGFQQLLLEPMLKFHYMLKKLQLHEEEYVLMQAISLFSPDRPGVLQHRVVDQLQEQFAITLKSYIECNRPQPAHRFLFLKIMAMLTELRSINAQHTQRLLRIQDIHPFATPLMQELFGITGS

Plk3(h) = target: T5, Plk3(h) (Homo sapiens, UniProt Q9H4B4); assay: Kinase panel; format: biochemical
T5 construct: purchased Cerep (receptors, ion channels, transporters); Eurofins Panlabs (kinases)
T5 sequence (Q9H4B4 whole entry): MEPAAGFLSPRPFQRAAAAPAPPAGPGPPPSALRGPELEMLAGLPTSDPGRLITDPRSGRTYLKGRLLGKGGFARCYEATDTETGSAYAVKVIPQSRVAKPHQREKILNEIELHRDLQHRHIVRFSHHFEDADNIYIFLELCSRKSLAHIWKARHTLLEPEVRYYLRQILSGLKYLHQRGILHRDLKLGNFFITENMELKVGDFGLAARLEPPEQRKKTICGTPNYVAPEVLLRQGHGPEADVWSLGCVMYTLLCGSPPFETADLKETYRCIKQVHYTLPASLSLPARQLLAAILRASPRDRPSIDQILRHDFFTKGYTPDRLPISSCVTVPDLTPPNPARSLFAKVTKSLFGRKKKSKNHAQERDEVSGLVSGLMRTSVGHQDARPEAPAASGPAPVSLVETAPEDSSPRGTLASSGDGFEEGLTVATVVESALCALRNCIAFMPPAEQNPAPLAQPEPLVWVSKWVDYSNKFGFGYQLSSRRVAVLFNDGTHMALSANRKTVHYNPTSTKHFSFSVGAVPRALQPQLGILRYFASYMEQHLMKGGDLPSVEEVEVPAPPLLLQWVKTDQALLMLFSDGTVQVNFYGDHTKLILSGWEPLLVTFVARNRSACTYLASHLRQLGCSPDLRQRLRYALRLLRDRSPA
Description: as §2

NE-T transporter (h) = target: T6, NE-T transporter (h) (Homo sapiens, UniProt P23975); assay: Cerep panel; format: binding
T6 construct: purchased Cerep (receptors, ion channels, transporters); Eurofins Panlabs (kinases)
Description: (§4) A panel of 52 different receptors, ion channels and transporters was tested by Cerep, Inc. (Redmond, WA).

[2] = test system: bacterial reverse mutation assay (AMES test); assay: bacterial reverse mutation assay (AMES test); format: cell-based; conditions: in vitro
ZAP-70(h) = target: T7, ZAP-70(h) (Homo sapiens, UniProt P43403); assay: Kinase panel; format: biochemical
T7 construct: purchased Cerep (receptors, ion channels, transporters); Eurofins Panlabs (kinases)
Description: as §2

CDK5/p35(h) = target: T8, CDK5/p35(h) (Homo sapiens, UniProt Q00535); assay: Kinase panel; format: biochemical
T8 construct: purchased Cerep (receptors, ion channels, transporters); Eurofins Panlabs (kinases)
Description: as §2

LXRβ = target: T9, LXRβ (Homo sapiens, UniProt P55055); assay: nuclear receptor cellular GAL4 reporter assay; format: cell-based; conditions: agonist and antagonist mode; read-out: potency in agonist and antagonist mode
T9 construct: expressed in transfected cells

D1 (h) = target: T10, D1 (h) (Homo sapiens, UniProt P21728); assay: Cerep panel; format: binding
T10 construct: purchased Cerep (receptors, ion channels, transporters); Eurofins Panlabs (kinases)
T10 sequence (P21728 whole entry): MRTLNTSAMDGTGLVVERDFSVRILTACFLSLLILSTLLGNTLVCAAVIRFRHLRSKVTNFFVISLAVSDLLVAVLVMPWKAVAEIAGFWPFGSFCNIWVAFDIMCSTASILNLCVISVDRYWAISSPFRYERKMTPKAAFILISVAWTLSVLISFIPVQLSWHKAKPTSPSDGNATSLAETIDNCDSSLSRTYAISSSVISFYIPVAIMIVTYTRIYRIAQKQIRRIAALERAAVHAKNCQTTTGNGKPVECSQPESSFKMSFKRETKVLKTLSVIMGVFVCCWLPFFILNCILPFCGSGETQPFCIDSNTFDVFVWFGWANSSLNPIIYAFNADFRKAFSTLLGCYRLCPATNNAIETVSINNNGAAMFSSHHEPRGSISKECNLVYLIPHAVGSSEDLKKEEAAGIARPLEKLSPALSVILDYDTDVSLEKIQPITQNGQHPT
Description: as §4

5HT2C = 5HT2C (Homo sapiens, UniProt P28335); assay: GPCR panel, cAMP or calcium FLIPR assays; format: cell-based
Description: as §3

PDGFRβ(h) = target: T11, PDGFRβ(h) (Homo sapiens, UniProt P09619); assay: Kinase panel; format: biochemical
T11 construct: purchased Cerep (receptors, ion channels, transporters); Eurofins Panlabs (kinases)
Description: as §2

M2 = M2 (Homo sapiens, UniProt P08172); assay: GPCR panel, cAMP or calcium FLIPR assays; format: cell-based
Description: as §3

ZIPK(h) = target: T12, ZIPK(h) (Homo sapiens, UniProt O43293); assay: Kinase panel; format: biochemical
T12 construct: purchased Cerep (receptors, ion channels, transporters); Eurofins Panlabs (kinases)
Description: as §2

SAPK3(h) = target: T13, SAPK3(h) (Homo sapiens, UniProt P53778); assay: Kinase panel; format: biochemical
T13 construct: purchased Cerep (receptors, ion channels, transporters); Eurofins Panlabs (kinases)
Description: as §2

A2A = A2A (Homo sapiens, UniProt P29274); assay: GPCR panel, cAMP or calcium FLIPR assays; format: cell-based
Description: as §3

EGFR(h) = target: T14, EGFR(h) (Homo sapiens, UniProt P00533); assay: Kinase panel; format: biochemical
T14 construct: purchased Cerep (receptors, ion channels, transporters); Eurofins Panlabs (kinases)
T14 sequence (P00533 25-1210): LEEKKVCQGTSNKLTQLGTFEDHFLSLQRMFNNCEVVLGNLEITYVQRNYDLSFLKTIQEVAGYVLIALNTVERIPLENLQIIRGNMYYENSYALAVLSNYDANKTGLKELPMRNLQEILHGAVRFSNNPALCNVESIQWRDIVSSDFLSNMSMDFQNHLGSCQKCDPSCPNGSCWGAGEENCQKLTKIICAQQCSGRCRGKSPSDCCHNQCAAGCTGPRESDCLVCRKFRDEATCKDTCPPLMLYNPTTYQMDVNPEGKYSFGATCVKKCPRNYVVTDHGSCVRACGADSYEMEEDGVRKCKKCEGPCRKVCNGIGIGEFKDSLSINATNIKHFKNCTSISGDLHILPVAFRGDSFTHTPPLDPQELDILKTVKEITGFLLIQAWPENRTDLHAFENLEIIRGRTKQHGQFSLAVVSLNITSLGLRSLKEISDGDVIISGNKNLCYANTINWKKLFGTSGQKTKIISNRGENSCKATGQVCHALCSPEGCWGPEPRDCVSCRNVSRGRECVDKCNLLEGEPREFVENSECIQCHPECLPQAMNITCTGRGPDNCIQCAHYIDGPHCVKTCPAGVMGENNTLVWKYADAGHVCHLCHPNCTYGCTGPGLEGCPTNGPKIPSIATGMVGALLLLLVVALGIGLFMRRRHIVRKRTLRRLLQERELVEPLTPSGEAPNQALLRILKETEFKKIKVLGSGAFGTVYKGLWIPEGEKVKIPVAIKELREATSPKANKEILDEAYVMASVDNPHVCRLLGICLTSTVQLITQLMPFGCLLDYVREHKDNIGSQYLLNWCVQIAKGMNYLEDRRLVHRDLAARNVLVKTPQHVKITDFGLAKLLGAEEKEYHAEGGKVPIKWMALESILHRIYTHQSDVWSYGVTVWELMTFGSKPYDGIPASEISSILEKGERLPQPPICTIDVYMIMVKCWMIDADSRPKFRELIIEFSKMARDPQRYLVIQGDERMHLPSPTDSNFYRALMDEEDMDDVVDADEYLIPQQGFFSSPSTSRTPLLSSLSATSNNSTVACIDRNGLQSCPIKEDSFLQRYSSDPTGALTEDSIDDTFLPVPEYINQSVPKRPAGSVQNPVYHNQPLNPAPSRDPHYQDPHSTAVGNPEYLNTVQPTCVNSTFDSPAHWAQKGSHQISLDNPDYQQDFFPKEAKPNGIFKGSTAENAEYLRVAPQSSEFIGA
Description: as §2

MAPK1(h) = target: T15, MAPK1(h) (Homo sapiens, UniProt P27361); assay: Kinase panel; format: biochemical
T15 construct: purchased Cerep (receptors, ion channels, transporters); Eurofins Panlabs (kinases)
Description: as §2

A2A (h) = target: T16, A2A (h) (Homo sapiens, UniProt P29274); assay: Cerep panel; format: binding
T16 construct: purchased Cerep (receptors, ion channels, transporters); Eurofins Panlabs (kinases)
Description: as §4

ADRB1 = ADRB1 (Homo sapiens, UniProt P08588); assay: GPCR panel, cAMP or calcium FLIPR assays; format: cell-based
Description: as §3

ADRB2 = ADRB2 (Homo sapiens, UniProt P07550); assay: GPCR panel, cAMP or calcium FLIPR assays; format: cell-based
ADRB2, sequence (P07550 whole entry, species assumed): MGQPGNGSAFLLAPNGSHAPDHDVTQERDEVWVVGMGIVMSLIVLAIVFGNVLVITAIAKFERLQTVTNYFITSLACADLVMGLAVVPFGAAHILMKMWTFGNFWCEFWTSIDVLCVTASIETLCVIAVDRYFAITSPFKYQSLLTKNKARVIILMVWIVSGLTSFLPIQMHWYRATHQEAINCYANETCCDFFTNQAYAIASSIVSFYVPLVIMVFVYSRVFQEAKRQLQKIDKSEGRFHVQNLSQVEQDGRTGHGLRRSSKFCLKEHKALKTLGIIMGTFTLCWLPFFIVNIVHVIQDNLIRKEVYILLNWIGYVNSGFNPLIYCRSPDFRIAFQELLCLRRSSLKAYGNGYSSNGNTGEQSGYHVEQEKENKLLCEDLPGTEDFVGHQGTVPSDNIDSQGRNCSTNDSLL
Description: as §3

5HT1A = 5HT1A (Homo sapiens, UniProt P08908); assay: GPCR panel, cAMP or calcium FLIPR assays; format: cell-based
5HT1A, sequence (P08908 whole entry, species assumed): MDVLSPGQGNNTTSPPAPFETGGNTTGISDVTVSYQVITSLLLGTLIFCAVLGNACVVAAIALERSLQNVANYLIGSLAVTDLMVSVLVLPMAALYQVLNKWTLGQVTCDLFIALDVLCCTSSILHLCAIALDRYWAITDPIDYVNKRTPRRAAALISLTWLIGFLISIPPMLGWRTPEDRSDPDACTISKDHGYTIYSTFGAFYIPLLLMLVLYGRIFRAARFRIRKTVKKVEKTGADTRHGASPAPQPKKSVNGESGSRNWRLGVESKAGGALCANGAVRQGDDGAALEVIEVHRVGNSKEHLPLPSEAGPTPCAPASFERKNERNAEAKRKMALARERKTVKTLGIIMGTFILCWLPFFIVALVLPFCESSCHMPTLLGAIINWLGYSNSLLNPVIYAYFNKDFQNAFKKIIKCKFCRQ
Description: as §1

delta 2 (h) (DOP) = target: T17, delta 2 (h) (DOP) (Homo sapiens, UniProt P41143); assay: Cerep panel; format: binding
T17 construct: purchased Cerep (receptors, ion channels, transporters); Eurofins Panlabs (kinases)
Description: as §4

5-HT7 (h) = target: T18, 5-HT7 (h) (Homo sapiens, UniProt P34969); assay: Cerep panel; format: binding
T18 construct: purchased Cerep (receptors, ion channels, transporters); Eurofins Panlabs (kinases)
Description: as §4

T1 sequence (Q01959 whole entry): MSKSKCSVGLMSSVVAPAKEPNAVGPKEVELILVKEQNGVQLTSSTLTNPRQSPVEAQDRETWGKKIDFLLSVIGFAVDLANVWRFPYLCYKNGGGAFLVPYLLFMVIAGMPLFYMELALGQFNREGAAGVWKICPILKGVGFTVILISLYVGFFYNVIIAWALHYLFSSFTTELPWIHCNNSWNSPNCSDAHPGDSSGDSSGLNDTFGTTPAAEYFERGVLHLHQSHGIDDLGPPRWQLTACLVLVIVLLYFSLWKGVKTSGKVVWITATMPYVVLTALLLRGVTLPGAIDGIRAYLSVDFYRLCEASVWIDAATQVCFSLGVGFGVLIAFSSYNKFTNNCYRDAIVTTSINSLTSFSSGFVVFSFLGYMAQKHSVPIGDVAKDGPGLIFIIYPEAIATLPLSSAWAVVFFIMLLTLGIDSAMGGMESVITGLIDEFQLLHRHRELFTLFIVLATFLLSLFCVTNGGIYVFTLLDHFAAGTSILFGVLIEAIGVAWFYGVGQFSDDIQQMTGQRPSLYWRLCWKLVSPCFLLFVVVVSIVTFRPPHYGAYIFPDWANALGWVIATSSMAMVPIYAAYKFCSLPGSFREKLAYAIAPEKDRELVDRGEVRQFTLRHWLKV

CC1CCCN1C(=O)c1nc(C(=O)NCC(C)(C)O)sc1-c1ccc(C(O)(C(F)(F)F)C(F)(F)F)c(Cl)c1Cl (stereo not shown) [JNJ-61803534]
IC50 (ERRγ): > 10 µM | inhibition at 1 µM (DA-T transporter (h)): < 10% | inhibition at 10 µM (DA-T transporter (h)): < 10% | activity at 1 µM (SAPK4(h)): 100% | activity at 10 µM (SAPK4(h)): 112% | EC50 (delta; agonist): > 12.5 µM | IC50 (delta; antagonist): > 12.5 µM | IC50 (rat whole blood): 0.12 ± 0.01 µM | maximum inhibition of ex vivo stimulated IL-17A production as compared to placebo ([1]; 100 mg single dose, fasted (cohort 3)): 45% | maximum inhibition of ex vivo stimulated IL-17A production as compared to placebo ([1]; 200 mg single dose (cohort 4)): 54% | IL-17A inhibition ([1]; 10 and 30 mg doses): did not appear to show a separation from placebo | activity at 1 µM (CHK1(h)): 97% | activity at 10 µM (CHK1(h)): 132% | mode of action on PXR (PXR): possibly partial modulator | IC50 (PXR; agonist and antagonist mode): 0.34 µM | activity at 1 µM (Plk3(h)): 120% | activity at 10 µM (Plk3(h)): 114% | inhibition at 1 µM (NE-T transporter (h)): < 10% | inhibition at 10 µM (NE-T transporter (h)): < 10% | genetic toxicity [2]: negative | activity at 1 µM (ZAP-70(h)): 137% | activity at 10 µM (ZAP-70(h)): 119% | activity at 1 µM (CDK5/p35(h)): 97% | activity at 10 µM (CDK5/p35(h)): 107% | IC50 (LXRβ): > 1.5 µM | inhibition at 1 µM (D1 (h)): < 10% | inhibition at 10 µM (D1 (h)): < 10% | EC50 (5HT2C; agonist): > 10 µM | IC50 (5HT2C; antagonist): > 10 µM | activity at 1 µM (PDGFRβ(h)): 103% | activity at 10 µM (PDGFRβ(h)): 143% | EC50 (M2; agonist): > 12.5 µM | IC50 (M2; antagonist): > 12.5 µM | activity at 1 µM (ZIPK(h)): 113% | activity at 10 µM (ZIPK(h)): 120% | activity at 1 µM (SAPK3(h)): 106% | activity at 10 µM (SAPK3(h)): 112% | EC50 (A2A; agonist): > 12.5 µM | IC50 (A2A; antagonist): > 12.5 µM | activity at 1 µM (EGFR(h)): 100% | activity at 10 µM (EGFR(h)): 101% | activity at 1 µM (MAPK1(h)): 91% | activity at 10 µM (MAPK1(h)): 112% | inhibition at 1 µM (A2A (h)): < 10% | inhibition at 10 µM (A2A (h)): < 10% | EC50 (ADRB1; agonist): > 12.5 µM | IC50 (ADRB1; antagonist): > 12.5 µM | EC50 (ADRB2; agonist): > 12.5 µM | IC50 (ADRB2; antagonist): > 12.5 µM | EC50 (5HT1A; agonist): > 12.5 µM | IC50 (5HT1A; antagonist): > 12.5 µM | inhibition at 1 µM (delta 2 (h) (DOP)): < 10% | inhibition at 10 µM (delta 2 (h) (DOP)): < 10% | inhibition at 1 µM (5-HT7 (h)): < 10% | inhibition at 10 µM (5-HT7 (h)): < 10%
